Source: patent publication US11007192B2, “Use of 5-amino-2,3-dihydro-1,4-phthalazinedione in the treatment of chronic progressive multiple sclerosis” (METRIOPHARM AG, priority 2016, dated 2021)

Key:
neuronal damage = conditions: low concentrations in vitro; cited from earlier work
TNFalpha = conditions: add on to standard therapy, acute phase RRMS patients; cited from earlier work
PPMS or SPMS = conditions: five years (60 months) after start; 200 mg then 300 mg twice a day; baseline EDSS 4.0
Experimental: EDSS determination is then performed every 6 months. […] Thus, the dosage is increased to 300 mg twice a day. […] No dosage adjustment is necessary. […] The next treatment round might vary in dosages used and duration of the treatments depending on disease progression.

[1] = depending on compound, dosage and formulation; cited from earlier work
inflammatory cytokines = conditions: mouse, in vivo
Experimental: (§1) Form II has earlier been tested for its effects on circulating levels of TNF-alpha and IL-6 2 and 4 hours after administration of a sublethal dose of LPS in CD1 mice. Therefore, Form II was administered i.p. at the dose of 0.5, 1.5 and 15.0 mg/kg 15 minutes before LPS challenge.

[2] = test system: adjuvant induced arthritis; conditions: rat, in vivo
Experimental: Rats were evaluated for arthritis daily by an observer unaware of the treatment according to a macroscopic scoring system. An arthritis index was calculated for each rat by summing the scores for the individual paws.

IL-6 = conditions: mouse, in vivo
Experimental: as §1

TNF-alpha = conditions: mouse, in vivo
Experimental: as §1

SMILES: Nc1cccc2c(=O)[nH][nH]c(=O)c12.[Na] [5-amino-2,3-dihydro-1,4-phthalazinedione sodium salt]
- neuronal damage in neurodegenerative diseases (neuronal damage): prevent neuronal damage
- downregulation of TNFalpha (TNFalpha): promising
- disability progression (PPMS or SPMS): 0.5 EDSS points

SMILES: Nc1cccc2c(=O)[nH][nH]c(=O)c12 [5-amino-2,3-dihydro-1,4-phthalazinedione]
- half-life [1]: several hours

SMILES: Nc1cccc2c(=O)[nH][nH]c(=O)c12.[Na] [Form I, 5-amino-2,3-dihydro-1,4-phthalazinedione sodium salt]
- effective dosage confirmed (inflammatory cytokines; ip): 0.5 mg/kg
- effect when applied orally (inflammatory cytokines; po): there was an effect
- arthritic score [2]: significantly reduced
- most effective dose [2]: medium
- cumulative score of the disease ([2]; ip, 1 mg/kg): reduce significantly

SMILES: Nc1cccc2c(=O)[nH][nH]c(=O)c12.[Na] [Form II, 5-amino-2,3-dihydro-1,4-phthalazinedione sodium salt]
- blood levels of inflammatory cytokines provoked by sublethal dose of LPS (inflammatory cytokines): significantly reduced
- Downregulation of IL-6 compared to vehicle (IL-6): significant
- Downregulation of IL-6 significant compared to vehicle (IL-6): not
- dose with best efficacy in down-regulation of IL-6 (IL-6): 0.5 mg/kg
- Downregulation of TNF-alpha compared to vehicle (TNF-alpha): significant
- Downregulation of TNF-alpha significant compared to vehicle (TNF-alpha): not
- dose with best efficacy in down-regulation of TNF-alpha (TNF-alpha): 0.5 mg/kg
